Source: patent US6737383B1, “Herbicidal oxadiazolidines” (priority 1999, dated 2004)

Legend:
soybean = experiment: Test B pre/postemergence soybean; format: in vivo, Glycine max
Summary of the method: (§1)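 Response is a visual 0-to-10 score relative to untreated plants, where 0 means no effect and 10 means complete control, taken twelve to sixteen days after application. Treatments went onto soil at planting and onto foliage of 1- to 4-leaf plants, using a surfactant-containing non-phytotoxic solvent.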

wild oat = experiment: Test B pre/postemergence wild oat; format: in vivo, Avena fatua
Summary of the method: as §1

giant foxtail = experiment: Test B pre/postemergence giant foxtail; format: in vivo, Setaria faberii
Summary of the method: as §1

corn = experiment: Test B pre/postemergence corn; format: in vivo, Zea mays
Summary of the method: as §1

pigweed = experiment: Test B pre/postemergence pigweed; format: in vivo, Amaranthus retroflexus
Summary of the method: as §1

rape = experiment: Test B pre/postemergence rape; format: in vivo, Brassica napus
Summary of the method: as §1

cocklebur = experiment: Test B pre/postemergence cocklebur; format: in vivo, Xanthium strumarium
Summary of the method: as §1

bedstraw = experiment: Test B pre/postemergence bedstraw; format: in vivo, Galium aparine
Summary of the method: as §1

morningglory = experiment: Test B pre/postemergence morningglory; format: in vivo, Ipomoea hederacea
Summary of the method: as §1

wheat = experiment: Test B pre/postemergence wheat; format: in vivo, Triticum aestivum
Summary of the method: as §1

purple nutsedge = experiment: Test B pre/postemergence purple nutsedge; format: in vivo, Cyperus rotundus
Summary of the method: as §1

sugar beet = experiment: Test B pre/postemergence sugar beet; format: in vivo, Beta vulgaris
Summary of the method: as §1

crabgrass = experiment: Test B pre/postemergence crabgrass; format: in vivo, Digitaria sanguinalis
Summary of the method: as §1

surinam grass = experiment: Test B pre/postemergence surinam grass; format: in vivo, Brachiaria decumbens
Summary of the method: as §1

blackgrass = experiment: Test B pre/postemergence blackgrass; format: in vivo, Alopecurus myosuroides
Summary of the method: as §1

velvetleaf = experiment: Test B pre/postemergence velvetleaf; format: in vivo, Abutilon theophrasti
Summary of the method: as §1

[1] = Postemergence, Rate 62 g/ha, scale 0 to 10, 0 is no effect, 10 is complete control
[2] = Postemergence, Rate 125 g/ha, scale of 0 to 10 where 0 is no effect and 10 is complete control
[3] = Preemergence, Rate 125 g/ha, scale of 0 to 10 where 0 is no effect and 10 is complete control
[4] = Preemergence, Rate 250 g/ha, scale 0 (no effect) to 10 (complete control)
[5] = Rate 62 g/ha, Preemergence, scale 0 to 10
[6] = Rate 250 g/ha, Postemergence, scale 0 to 10, 0 is no effect, 10 is complete control
[7] = Rate 500 g/ha, Postemergence, scale 0 to 10, 0 is no effect, 10 is complete control
[8] = Rate 500 g/ha, Preemergence, scale 0 to 10 (0 no effect, 10 complete control)

For `CC(C)N(C(=O)n1oc(=O)n(CCCCl)c1=O)c1ccc(Cl)cc1` [Compound 749], the “Plant response rating, Soybean” value (soybean; [1]) was 3, the “Soybean plant response rating” value (soybean; [2]) was 4 and the “Plant response rating, Soybean” value (soybean; [3]) was 0. For the same compound, the “Soybean plant response rating” value (soybean; [4]) was 2, the “Soybean plant response rating” value (soybean; [5]) was 0 and the “Soybean plant response rating” value (soybean; [6]) was 5. For the same compound, the “Soybean plant response rating” value (soybean; [7]) was 5, the “Soybean plant response rating” value (soybean; [8]) was 3 and the “Plant response rating, Wild oats” value (wild oat; [1]) was 0. The “Wild oats plant response rating” value (wild oat; [2]) was 0, the “Plant response rating, Wild oats” value (wild oat; [3]) was 0 and the “Wild oats plant response rating” value (wild oat; [4]) was 5. For the same compound, the “Wild oats plant response rating” value (wild oat; [5]) was 0, the “Wild oats plant response rating” value (wild oat; [6]) was 0 and the “Wild oats plant response rating” value (wild oat; [7]) was 2. The “Wild oats plant response rating” value (wild oat; [8]) was 8, the “Plant response rating, Giant foxtail” value (giant foxtail; [1]) was 3 and the “Giant foxtail plant response rating” value (giant foxtail; [2]) was 5. For the same compound, the “Plant response rating, Giant foxtail” value (giant foxtail; [3]) was 10, the “Giant foxtail plant response rating” value (giant foxtail; [4]) was 10 and the “Giant foxtail plant response rating” value (giant foxtail; [5]) was 9. The “Giant foxtail plant response rating” value (giant foxtail; [6]) was 9, the “Giant foxtail plant response rating” value (giant foxtail; [7]) was 9 and the “Giant foxtail plant response rating” value (giant foxtail; [8]) was 10. For the same compound, the “Plant response rating, Corn” value (corn; [1]) was 0, the “Corn plant response rating” value (corn; [2]) was 0 and the “Plant response rating, Corn” value (corn; [3]) was 0. The “Corn plant response rating” value (corn; [4]) was 0, the “Corn plant response rating” value (corn; [5]) was 0 and the “Corn plant response rating” value (corn; [6]) was 0. The “Corn plant response rating” value (corn; [7]) was 1, the “Corn plant response rating” value (corn; [8]) was 0 and the “Plant response rating, Redroot pigweed” value (pigweed; [1]) was 4. For the same compound, the “Redroot pigweed plant response rating” value (pigweed; [2]) was 4, the “Plant response rating, Redroot pigweed” value (pigweed; [3]) was 5 and the “Redroot pigweed plant response rating” value (pigweed; [4]) was 7. The “Redroot pigweed plant response rating” value (pigweed; [5]) was 0, the “Redroot pigweed plant response rating” value (pigweed; [6]) was 4 and the “Redroot pigweed plant response rating” value (pigweed; [7]) was 7. The “Redroot pigweed plant response rating” value (pigweed; [8]) was 9, the “Plant response rating, Rape” value (rape; [1]) was 2 and the “Rape plant response rating” value (rape; [2]) was 2. The “Plant response rating, Rape” value (rape; [3]) was 0, the “Rape plant response rating” value (rape; [4]) was 0 and the “Rape plant response rating” value (rape; [5]) was 0. For the same compound, the “Rape plant response rating” value (rape; [6]) was 6, the “Rape plant response rating” value (rape; [7]) was 6 and the “Rape plant response rating” value (rape; [8]) was 5. The “Plant response rating, Cocklebur” value (cocklebur; [1]) was 0, the “Cocklebur plant response rating” value (cocklebur; [2]) was 2 and the “Plant response rating, Cocklebur” value (cocklebur; [3]) was 0. The “Cocklebur plant response rating” value (cocklebur; [4]) was 0, the “Cocklebur plant response rating” value (cocklebur; [6]) was 4 and the “Cocklebur plant response rating” value (cocklebur; [7]) was 4. For the same compound, the “Cocklebur plant response rating” value (cocklebur; [8]) was 0, the “Plant response rating, Bedstraw” value (bedstraw; [1]) was 3 and the “Plant response rating, Bedstraw” value (bedstraw; [3]) was 0. The “Bedstraw plant response rating” value (bedstraw; [4]) was 0, the “Bedstraw plant response rating” value (bedstraw; [5]) was 0 and the “Bedstraw plant response rating” value (bedstraw; [6]) was 3. The “Bedstraw plant response rating” value (bedstraw; [8]) was 4, the “Plant response rating, Morningglory” value (morningglory; [1]) was 2 and the “Morningglory plant response rating” value (morningglory; [2]) was 3. The “Plant response rating, Morningglory” value (morningglory; [3]) was 0, the “Morningglory plant response rating” value (morningglory; [4]) was 0 and the “Morningglory plant response rating” value (morningglory; [5]) was 0. For the same compound, the “Morningglory plant response rating” value (morningglory; [6]) was 5, the “Morningglory plant response rating” value (morningglory; [7]) was 5 and the “Morningglory plant response rating” value (morningglory; [8]) was 0. The “Plant response rating, Wheat” value (wheat; [1]) was 0, the “Wheat plant response rating” value (wheat; [2]) was 0 and the “Plant response rating, Wheat” value (wheat; [3]) was 0. For the same compound, the “Wheat plant response rating” value (wheat; [4]) was 1, the “Wheat plant response rating” value (wheat; [5]) was 0 and the “Wheat plant response rating” value (wheat; [6]) was 0. For the same compound, the “Wheat plant response rating” value (wheat; [7]) was 0, the “Wheat plant response rating” value (wheat; [8]) was 1 and the “Plant response rating, Nutsedge” value (purple nutsedge; [1]) was 0. For the same compound, the “Nutsedge plant response rating” value (purple nutsedge; [2]) was 0, the “Plant response rating, Nutsedge” value (purple nutsedge; [3]) was 0 and the “Nutsedge plant response rating” value (purple nutsedge; [4]) was 0. The “Nutsedge plant response rating” value (purple nutsedge; [5]) was 0, the “Nutsedge plant response rating” value (purple nutsedge; [6]) was 0 and the “Nutsedge plant response rating” value (purple nutsedge; [7]) was 0. The “Plant response rating, Sugarbeets” value (sugar beet; [1]) was 1, the “Sugarbeets plant response rating” value (sugar beet; [2]) was 3 and the “Plant response rating, Sugarbeets” value (sugar beet; [3]) was 2. The “Sugarbeets plant response rating” value (sugar beet; [4]) was 6, the “Sugarbeets plant response rating” value (sugar beet; [5]) was 0 and the “Sugarbeets plant response rating” value (sugar beet; [6]) was 4. For the same compound, the “Sugarbeets plant response rating” value (sugar beet; [7]) was 4, the “Sugarbeets plant response rating” value (sugar beet; [8]) was 7 and the “Plant response rating, Crabgrass” value (crabgrass; [1]) was 4. The “Crabgrass plant response rating” value (crabgrass; [2]) was 8, the “Plant response rating, Crabgrass” value (crabgrass; [3]) was 10 and the “Crabgrass plant response rating” value (crabgrass; [4]) was 10. The “Crabgrass plant response rating” value (crabgrass; [5]) was 9, the “Crabgrass plant response rating” value (crabgrass; [6]) was 9 and the “Crabgrass plant response rating” value (crabgrass; [7]) was 9. The “Crabgrass plant response rating” value (crabgrass; [8]) was 10, the “Plant response rating, B. signalgrass” value (surinam grass; [1]) was 2 and the “B. signalgrass plant response rating” value (surinam grass; [2]) was 2. The “B. signalgrass plant response rating” value (surinam grass; Preemergence, Rate 62 g/ha, scale of 0 to 10 where 0 is no effect and 10 is complete control) was 0, the “Plant response rating, B. signalgrass” value (surinam grass; [3]) was 2 and the “B. signalgrass plant response rating” value (surinam grass; [4]) was 8. For the same compound, the “B. signalgrass plant response rating” value (surinam grass; [6]) was 3, the “B. signalgrass plant response rating” value (surinam grass; [7]) was 3 and the “B. signalgrass plant response rating” value (surinam grass; [8]) was 10. The “Plant response rating, Blackgrass” value (blackgrass; [1]) was 5, the “Blackgrass plant response rating” value (blackgrass; [2]) was 5 and the “Plant response rating, Blackgrass” value (blackgrass; [3]) was 2. For the same compound, the “Blackgrass plant response rating” value (blackgrass; [4]) was 6, the “Blackgrass plant response rating” value (blackgrass; [5]) was 0 and the “Blackgrass plant response rating” value (blackgrass; [6]) was 6. The “Blackgrass plant response rating” value (blackgrass; [7]) was 6, the “Blackgrass plant response rating” value (blackgrass; [8]) was 9 and the “Plant response rating, Velvetleaf” value (velvetleaf; [1]) was 0. The “Velvetleaf plant response rating” value (velvetleaf; [2]) was 3, the “Plant response rating, Velvetleaf” value (velvetleaf; [3]) was 0 and the “Velvetleaf plant response rating” value (velvetleaf; [4]) was 0. For the same compound, the “Velvetleaf plant response rating” value (velvetleaf; [5]) was 0, the “Velvetleaf plant response rating” value (velvetleaf; [6]) was 3 and the “Velvetleaf plant response rating” value (velvetleaf; [7]) was 3. The “Velvetleaf plant response rating” value (velvetleaf; [8]) was 2.
